Reference: patent US20250333371A1, “COMPOUNDS” (PSYLO PTY LTD, priority 2022, published 2025)

The compounds below were run against T1, 5-HT2A (Homo sapiens, UniProt P28223) (assay: FLIPR Ca2+ flux functional assay, 5-HT2A receptor (stably transfected HEK293)). Conditions: HEK293; @ 10 uM; no EC50 value given; read-out: 5-HT2A Emax (%) printed as % @ 10 uM.
T1 construct: host or cells: HEK293
Format: cell-based
Procedure: (§1) Activity at 5-HT2A, 5-HT2B and 5-HT2C receptors was determined using a FLIPR Ca^2+ flux assay at WuXi AppTec Co. Ltd. (Hong Kong) Discovery Biology Unit according to their standard protocols. Briefly, stably transfected cells expressing the receptor of interest (HEK293 for 5-HT2A and 5-HT2C; CHO-K1 for 5-HT2B) were grown and plated in a 384 well plate and incubated at 37° C. and 5% CO2 overnight. A 250 mM stock solution of probenecid in FLIPR calcium assay buffer (10 mL) was freshly prepared and combined with a fluorescent dye (Fluo-4 Direct) to give a final assay concentration of 2.5 mM. Reference compounds were 4-fold serially diluted and the screening compounds were 3-fold serially diluted in 100% DMSO for 10 points using Agilent Bravo, and 750 nL was added to a 384 well compound plate using Echo along with 30 μL assay buffer. The fluorescent dye was then added to the assay plate along with assay buffer to a final volume of 40 μL. The cell plate was incubated for 50 min at 37° C. and 5% CO2 and placed into the FLIPR Tetra along with the compound plate. 10 μL of references and compounds were then transferred from the compound plate into the cell plate and the fluorescent signal was read.

T1 sequence (P28223 whole entry): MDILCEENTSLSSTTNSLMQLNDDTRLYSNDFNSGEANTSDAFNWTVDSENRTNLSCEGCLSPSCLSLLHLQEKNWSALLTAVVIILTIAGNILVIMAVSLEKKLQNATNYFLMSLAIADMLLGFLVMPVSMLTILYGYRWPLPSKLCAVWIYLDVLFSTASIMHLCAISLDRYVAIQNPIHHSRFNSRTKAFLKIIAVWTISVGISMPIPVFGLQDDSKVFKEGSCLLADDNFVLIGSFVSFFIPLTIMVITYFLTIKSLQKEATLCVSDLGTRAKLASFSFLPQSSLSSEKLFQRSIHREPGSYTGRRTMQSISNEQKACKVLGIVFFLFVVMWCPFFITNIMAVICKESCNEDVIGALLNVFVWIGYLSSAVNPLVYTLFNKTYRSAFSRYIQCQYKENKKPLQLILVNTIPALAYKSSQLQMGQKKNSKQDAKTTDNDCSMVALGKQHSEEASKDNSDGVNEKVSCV

Row | Compound | Emax at 10 µM
1 | COc1ccc2cccc(CCN(C)C)c2n1 [Example I-8, 2-(2-methoxyquinolin-8-yl)-N,N-dimethylethan-1-amine] | 24%

Same assay, conditions: agonist activity, Ca2+ flux, HEK293

Row | Compound | Emax
2 | CCN(C)CCc1cccc2cccc(O)c12 [Example I-26, 8-(2-(methyl(ethyl)amino)ethyl)naphthalen-1-ol] | 68%
3 | CN(C)CCc1cccc2cccc(O)c12 [Example I-21, 8-(2-(dimethylamino)ethyl)naphthalen-1-ol] | 73%
4 | COc1ccc2cccc(CCN(C)C)c2c1 [Example I-1, 2-(7-methoxynaphthalen-1-yl)-N,N-dimethylethan-1-amine] | 79%
5 | CCCN(CCC)CCc1cccc2cccc(OC)c12 [Example I-23, N-(2-(8-methoxynaphthalen-1-yl)ethyl)-N-propylpropan-1-amine] | 93%
6 | COc1cccc(CNCCc2cccc3ccc(OC)cc23)c1 [Example I-17, N-(3-methoxybenzyl)-2-(7-methoxynaphthalen-1-yl)ethan-1-amine] | 84%
7 | COc1ccc2cccc(CCN(C(C)C)C(C)C)c2c1 [Example I-4, N-isopropyl-N-(2-(7-methoxynaphthalen-1-yl)ethyl)propan-2-amine] | 111%

Same assay, conditions: agonist activity, Ca2+ flux, HEK293; read-out: 5-HT2A EC50

Row | Compound | EC50
8 | CCN(C)CCc1cccc2cccc(O)c12 [Example I-26, 8-(2-(methyl(ethyl)amino)ethyl)naphthalen-1-ol] | 41 nM
9 | CN(C)CCc1cccc2cccc(O)c12 [Example I-21, 8-(2-(dimethylamino)ethyl)naphthalen-1-ol] | 53 nM
10 | COc1ccc2cccc(CCN(C)C)c2c1 [Example I-1, 2-(7-methoxynaphthalen-1-yl)-N,N-dimethylethan-1-amine] | 96 nM
11 | CCCN(CCC)CCc1cccc2cccc(OC)c12 [Example I-23, N-(2-(8-methoxynaphthalen-1-yl)ethyl)-N-propylpropan-1-amine] | 165 nM
12 | COc1cccc(CNCCc2cccc3ccc(OC)cc23)c1 [Example I-17, N-(3-methoxybenzyl)-2-(7-methoxynaphthalen-1-yl)ethan-1-amine] | 92 nM
13 | COc1ccc2cccc(CCN(C(C)C)C(C)C)c2c1 [Example I-4, N-isopropyl-N-(2-(7-methoxynaphthalen-1-yl)ethyl)propan-2-amine] | 446 nM

These compounds were tested against T2, 5-HT2C (Homo sapiens, UniProt P28335) (assay: FLIPR Ca2+ flux functional assay, 5-HT2C receptor (stably transfected HEK293)). Conditions: not given.
T2 construct: host or cells: HEK293
T2 sequence (P28335 33-458): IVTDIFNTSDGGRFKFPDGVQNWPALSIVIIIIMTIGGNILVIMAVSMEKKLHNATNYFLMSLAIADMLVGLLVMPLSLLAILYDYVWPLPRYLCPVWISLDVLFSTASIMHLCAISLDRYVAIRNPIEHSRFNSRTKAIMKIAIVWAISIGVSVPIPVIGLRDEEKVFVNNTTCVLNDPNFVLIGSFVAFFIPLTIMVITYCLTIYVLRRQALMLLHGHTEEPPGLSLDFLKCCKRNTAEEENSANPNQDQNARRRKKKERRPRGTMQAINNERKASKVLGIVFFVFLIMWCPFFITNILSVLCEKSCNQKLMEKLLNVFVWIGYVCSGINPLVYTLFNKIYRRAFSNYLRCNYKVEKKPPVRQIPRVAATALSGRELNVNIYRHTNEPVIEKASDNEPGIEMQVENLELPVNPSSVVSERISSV
Format: cell-based
Procedure: as §1

Row | Compound | EC50
14 | CCN(C)CCc1cccc2cccc(O)c12 [Example I-26, 8-(2-(methyl(ethyl)amino)ethyl)naphthalen-1-ol] | 15 nM
15 | CN(C)CCc1cccc2cccc(O)c12 [Example I-21, 8-(2-(dimethylamino)ethyl)naphthalen-1-ol] | 12 nM
16 | COc1ccc2cccc(CCN(C)C)c2c1 [Example I-1, 2-(7-methoxynaphthalen-1-yl)-N,N-dimethylethan-1-amine] | 33 nM

Same assay, conditions: agonist activity, Ca2+ flux, HEK293

Row | Compound | Emax
17 | CCN(C)CCc1cccc2cccc(O)c12 [Example I-26, 8-(2-(methyl(ethyl)amino)ethyl)naphthalen-1-ol] | 86%
18 | CN(C)CCc1cccc2cccc(O)c12 [Example I-21, 8-(2-(dimethylamino)ethyl)naphthalen-1-ol] | 90%
19 | COc1ccc2cccc(CCN(C)C)c2c1 [Example I-1, 2-(7-methoxynaphthalen-1-yl)-N,N-dimethylethan-1-amine] | 82%
20 | COc1ccc2cccc(CCN(C)C)c2n1 [Example I-8, 2-(2-methoxyquinolin-8-yl)-N,N-dimethylethan-1-amine] | 87%
21 | CCCN(CCC)CCc1cccc2cccc(OC)c12 [Example I-23, N-(2-(8-methoxynaphthalen-1-yl)ethyl)-N-propylpropan-1-amine] | 88%
22 | COc1cccc(CNCCc2cccc3ccc(OC)cc23)c1 [Example I-17, N-(3-methoxybenzyl)-2-(7-methoxynaphthalen-1-yl)ethan-1-amine] | 97%
23 | COc1ccc2cccc(CCN(C(C)C)C(C)C)c2c1 [Example I-4, N-isopropyl-N-(2-(7-methoxynaphthalen-1-yl)ethyl)propan-2-amine] | 99%

Same assay, conditions: agonist activity, Ca2+ flux, HEK293; read-out: 5-HT2C EC50

Row | Compound | EC50
24 | COc1ccc2cccc(CCN(C)C)c2n1 [Example I-8, 2-(2-methoxyquinolin-8-yl)-N,N-dimethylethan-1-amine] | 314 nM
25 | CCCN(CCC)CCc1cccc2cccc(OC)c12 [Example I-23, N-(2-(8-methoxynaphthalen-1-yl)ethyl)-N-propylpropan-1-amine] | 291 nM
26 | COc1cccc(CNCCc2cccc3ccc(OC)cc23)c1 [Example I-17, N-(3-methoxybenzyl)-2-(7-methoxynaphthalen-1-yl)ethan-1-amine] | 18 nM
27 | COc1ccc2cccc(CCN(C(C)C)C(C)C)c2c1 [Example I-4, N-isopropyl-N-(2-(7-methoxynaphthalen-1-yl)ethyl)propan-2-amine] | 1260 nM

What follows are compounds tested against T3, 5-HT2B (Homo sapiens, UniProt P41595) (assay: FLIPR Ca2+ flux functional assay, 5-HT2B receptor (stably transfected CHO-K1)). Conditions: not given.
T3 construct: host or cells: CHO-K1
T3 sequence (P41595 whole entry): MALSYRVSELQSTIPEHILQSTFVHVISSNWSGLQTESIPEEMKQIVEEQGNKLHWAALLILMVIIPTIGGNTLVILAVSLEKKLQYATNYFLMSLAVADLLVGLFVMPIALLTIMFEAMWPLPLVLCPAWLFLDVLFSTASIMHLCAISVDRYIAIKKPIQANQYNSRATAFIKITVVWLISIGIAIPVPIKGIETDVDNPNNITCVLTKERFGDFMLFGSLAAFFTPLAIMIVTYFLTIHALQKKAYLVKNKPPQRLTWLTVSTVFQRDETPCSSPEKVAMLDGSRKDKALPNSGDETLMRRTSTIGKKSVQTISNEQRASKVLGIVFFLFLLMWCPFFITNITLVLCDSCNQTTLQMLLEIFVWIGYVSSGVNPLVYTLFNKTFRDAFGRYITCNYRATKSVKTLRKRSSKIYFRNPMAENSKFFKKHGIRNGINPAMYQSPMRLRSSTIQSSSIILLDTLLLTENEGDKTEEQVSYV
Format: cell-based
Procedure: as §1

Row | Compound | EC50
28 | COc1ccc2cccc(CCN(C)C)c2c1 [Example I-1, 2-(7-methoxynaphthalen-1-yl)-N,N-dimethylethan-1-amine] | > 10000 nM

Same assay, conditions: agonist activity, Ca2+ flux, CHO-K1

Row | Compound | Emax
29 | COc1ccc2cccc(CCN(C)C)c2c1 [Example I-1, 2-(7-methoxynaphthalen-1-yl)-N,N-dimethylethan-1-amine] | -0.99%
30 | COc1ccc2cccc(CCN(C)C)c2n1 [Example I-8, 2-(2-methoxyquinolin-8-yl)-N,N-dimethylethan-1-amine] | 8%
31 | CCCN(CCC)CCc1cccc2cccc(OC)c12 [Example I-23, N-(2-(8-methoxynaphthalen-1-yl)ethyl)-N-propylpropan-1-amine] | 89%
32 | COc1ccc2cccc(CCN(C(C)C)C(C)C)c2c1 [Example I-4, N-isopropyl-N-(2-(7-methoxynaphthalen-1-yl)ethyl)propan-2-amine] | 123%

Same assay, conditions: agonist activity, Ca2+ flux, CHO-K1; read-out: 5-HT2B EC50

Row | Compound | EC50
33 | COc1ccc2cccc(CCN(C)C)c2n1 [Example I-8, 2-(2-methoxyquinolin-8-yl)-N,N-dimethylethan-1-amine] | > 10000 nM
34 | CCCN(CCC)CCc1cccc2cccc(OC)c12 [Example I-23, N-(2-(8-methoxynaphthalen-1-yl)ethyl)-N-propylpropan-1-amine] | 103 nM
35 | COc1ccc2cccc(CCN(C(C)C)C(C)C)c2c1 [Example I-4, N-isopropyl-N-(2-(7-methoxynaphthalen-1-yl)ethyl)propan-2-amine] | 1200 nM
